Assay: In vivo toxicity: body weight, adverse events, H&E of major organs
Design: species or system Balb/c nude mice
Details: 100 mg/kg intragastric every day

CC(=O)Oc1ccccc1C(=O)Nc1ncc([N+](=O)[O-])s1 [Nitazoxanide]
severe adverse events, mortality, histopathological changes in heart, lung, liver, spleen, kidney (prevention mode): no mice in any NTZ-treated group had severe adverse events, mortality, or noticeable histopathological changes | body weight (prevention mode, after 5 weeks): did not show a noticeable change | body weights (therapy mode): not affected

Source: publication PMC9945734 (BMC Medicine, 2023)
